Measured values reported in US9783536B2, “Nitrogen-containing heterocyclic compound or salt thereof” (FUJIFILM Corporation, priority 2013, dated 2017).
Where a name gives a salt, the structure may show the parent alone. Read-outs that look alike come from different tables or passages of the source.

Legend:
human PI3Kα protein = target: T1, human PI3Kα protein (Homo sapiens, UniProt P42336); assay: PI3Kα enzyme assay (ADP-Glo); type: biochemical; conditions: read-out: PI3Kα enzyme inhibitory activity
T1 construct: purchased Carna Biosciences, Inc; host or cells: baculovirus expression system
Summary of the method: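 Biotinylated human PI3Kα (baculovirus-expressed, 4.5 nmol/L) pre-incubated 15 min with compound in Tris-HCl pH 7.5, MgCl2, BSA; reaction 60 min at 25° C with 50 μmol/L PIP2 and 100 μmol/L ATP final. ADP quantified by ADP-Glo luminescence; IC50 calculated.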

[1] = target: T2, GST fusion human ERK2 protein (Homo sapiens, UniProt P28482); assay: ERK2 enzyme assay (1); type: biochemical; conditions: read-out: ERK2 enzyme inhibitory activity (1)
T2 construct: purchased Carna Biosciences, Inc; host or cells: E. coli expression system
Experimental: In an ERK2 enzyme assay, GLUTATHIONE S-TRANSFERASE (GST) FUSION HUMAN ERK2 PROTEIN (manufactured by Carna Biosciences, Inc.), which was produced by using an E. coli expression system, was used.
12 μL of a reaction liquid (2.5 nmol/L ERK2, 100 mmol/L Hepes, 10 mmol/L MgCl2, 1.5 mmol/L DTT, 0.003% Brij35, pH 7.5) including ERK2 protein and a test compound having a predetermined concentration was allowed to stand at room temperature for 15 minutes. Then, 3 μL of a mixture liquid of FL-PEPTIDE8 (5-FAM-IPTSPITTTYFFFKKK-COOH) (manufactured by Caliper Life Sciences), which is substrate peptide, and ATP (manufactured by Sigma-Aldrich Co. LLC.) was added thereto such that the final concentrations thereof became 4.25 μmol/L and 43.1 μmol/L, respectively, and an enzyme reaction was performed by allowing to stand at 25° C. for 120 minutes.
After the reaction, the enzyme reaction was stopped by adding 30 μL of a reaction stopper liquid (100 mmol/L HEPES, 11.2 mmol/L EDTA, 5.6% Brij35, pH 7.5) including a 0.5% COATING REAGENT 8 (trade name, manufactured by Perkin Elmer Inc.) thereto. Then, phosphorylated peptide and non-phosphorylated peptide were separated using LABCHIP EZ READER (trade name, manufactured by Caliper Life Sciences), and the porportion of the phosphorylated peptide was quantified.
The inhibitory activities of the compounds were evaluated using IC50 (50% inhibitory concentration). The IC50 was calculated using XLFIT (trade name, manufactured by ID Business Solutions).

[2] = 4.5 nmol/L PI3Kα, PIP2 50 μmol/L, ATP 100 μmol/L
[3] = 2.5 nmol/L ERK2, ATP 43.1 μmol/L

T2 sequence (P28482 whole entry, the tested form may be a part): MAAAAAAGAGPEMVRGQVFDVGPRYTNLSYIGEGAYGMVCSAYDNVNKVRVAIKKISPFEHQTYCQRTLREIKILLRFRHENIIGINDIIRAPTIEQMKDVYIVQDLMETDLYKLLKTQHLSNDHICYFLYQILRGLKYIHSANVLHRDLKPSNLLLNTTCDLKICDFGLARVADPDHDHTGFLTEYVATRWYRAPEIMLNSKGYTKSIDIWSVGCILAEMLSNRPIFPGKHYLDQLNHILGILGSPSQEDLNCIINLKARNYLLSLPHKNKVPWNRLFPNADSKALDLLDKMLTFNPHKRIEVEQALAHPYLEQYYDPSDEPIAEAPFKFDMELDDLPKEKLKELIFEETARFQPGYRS
T1 sequence (P42336 whole entry): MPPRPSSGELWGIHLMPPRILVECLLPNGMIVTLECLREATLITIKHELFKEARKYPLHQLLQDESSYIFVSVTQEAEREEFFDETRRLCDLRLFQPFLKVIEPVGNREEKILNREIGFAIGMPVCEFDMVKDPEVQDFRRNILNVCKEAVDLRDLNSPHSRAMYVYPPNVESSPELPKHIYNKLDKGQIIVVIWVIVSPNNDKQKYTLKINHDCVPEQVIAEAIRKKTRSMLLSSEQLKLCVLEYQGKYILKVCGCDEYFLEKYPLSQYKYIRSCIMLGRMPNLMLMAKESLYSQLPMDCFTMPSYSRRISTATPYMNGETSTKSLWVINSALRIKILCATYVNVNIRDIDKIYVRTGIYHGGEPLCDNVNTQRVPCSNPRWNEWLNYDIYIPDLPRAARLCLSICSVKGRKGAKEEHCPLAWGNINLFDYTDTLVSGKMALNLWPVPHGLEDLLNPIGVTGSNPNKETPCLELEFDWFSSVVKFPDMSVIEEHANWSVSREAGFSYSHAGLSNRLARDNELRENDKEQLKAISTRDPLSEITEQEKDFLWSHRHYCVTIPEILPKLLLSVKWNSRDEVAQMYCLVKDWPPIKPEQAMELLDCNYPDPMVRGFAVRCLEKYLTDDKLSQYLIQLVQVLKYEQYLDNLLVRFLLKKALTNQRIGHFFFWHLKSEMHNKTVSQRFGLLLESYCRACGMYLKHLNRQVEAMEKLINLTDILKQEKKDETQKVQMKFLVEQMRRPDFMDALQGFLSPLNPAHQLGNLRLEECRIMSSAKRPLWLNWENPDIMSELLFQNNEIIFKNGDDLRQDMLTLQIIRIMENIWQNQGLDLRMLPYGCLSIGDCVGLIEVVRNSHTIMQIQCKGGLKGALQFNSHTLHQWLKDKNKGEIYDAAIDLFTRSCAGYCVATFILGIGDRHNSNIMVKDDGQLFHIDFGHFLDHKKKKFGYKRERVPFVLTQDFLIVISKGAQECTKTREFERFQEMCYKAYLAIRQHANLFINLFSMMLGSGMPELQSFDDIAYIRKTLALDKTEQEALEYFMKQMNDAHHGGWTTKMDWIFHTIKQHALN
T1 sequence (P27986 whole entry partner): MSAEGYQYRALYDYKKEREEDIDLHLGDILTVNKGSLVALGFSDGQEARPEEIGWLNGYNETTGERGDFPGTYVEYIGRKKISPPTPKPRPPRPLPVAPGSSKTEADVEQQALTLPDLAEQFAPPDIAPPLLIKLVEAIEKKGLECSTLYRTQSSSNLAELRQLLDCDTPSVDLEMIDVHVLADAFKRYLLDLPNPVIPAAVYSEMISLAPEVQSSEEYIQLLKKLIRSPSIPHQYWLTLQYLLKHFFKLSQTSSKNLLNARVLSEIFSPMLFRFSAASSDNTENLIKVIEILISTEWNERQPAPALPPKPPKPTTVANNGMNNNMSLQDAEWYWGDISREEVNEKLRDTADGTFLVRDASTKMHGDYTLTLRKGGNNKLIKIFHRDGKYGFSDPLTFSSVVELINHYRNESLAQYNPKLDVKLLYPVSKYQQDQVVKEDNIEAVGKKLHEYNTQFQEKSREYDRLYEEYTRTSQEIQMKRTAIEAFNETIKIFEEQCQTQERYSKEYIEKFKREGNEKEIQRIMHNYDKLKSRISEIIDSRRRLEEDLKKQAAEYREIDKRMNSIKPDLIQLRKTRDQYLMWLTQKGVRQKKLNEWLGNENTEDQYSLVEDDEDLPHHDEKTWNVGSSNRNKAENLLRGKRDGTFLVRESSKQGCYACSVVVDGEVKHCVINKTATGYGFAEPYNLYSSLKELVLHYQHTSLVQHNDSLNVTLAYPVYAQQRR

IC50 (human PI3Kα protein) [nM]	IC50 ([1]; ERK2 enzyme assay (1)) [nM]	IC50 (human PI3Kα protein; [2]) [nM]	IC50 [1, 3] [nM]	SMILES
< 1000	< 1000	–	–	COC1CCCN(CCCn2cc(-c3cnc4ccc(Nc5cc(C(C)C)cnn5)nc4c3)cn2)C1 (centres unmarked) [Example 0378, N-(5-isopropylpyridazin-3-yl)-7-(1-(3-(3-methoxypiperidin-1-yl)propyl)-1H-pyrazol-4-yl)-1,5-naphthyridine-2-amine]
1000 to 10000	< 1000	–	–	CN1CC=C(c2cnc3ccc(Nc4nnc(C5CCCC5)s4)nc3c2)CC1 [Example 0333, 5-cyclopentyl-N-(7-(1-methyl-1,2,3,6-tetrahydropyridin-4-yl)-1,5-naphthyridin-2-yl)-1,3,4-thiadiazole-2-amine]
–	–	1000 to 10000	< 1000	O=C(CO)N1CCN(c2cnc3ccc(Nc4nnc(C5CCCC5)s4)nc3c2)CC1 [Example 0058, 1-(4-(6-((5-cyclopentyl-1,3,4-thiadiazol-2-yl)amino)-1,5-naphthyridin-3-yl)piperazin-1-yl)-2-hydroxyethanone]
–	–	1000 to 10000	< 1000	CC(C)c1cnnc(Nc2ccc3ncc(-c4cn[nH]c4)cc3n2)c1 [Example 0153]
–	–	10000 to 50000	< 1000	COCCOc1cnc2ccc(Nc3nnc(C4CCCC4)s3)nc2c1 [Example 0041, 5-cyclopentyl-N-(7-(2-methoxyethoxy)-1,5-naphthyridin-2-yl)-1,3,4-thiadiazole-2-amine hydrochloride]
< 1000	< 1000	–	–	Cc1cc(-c2cnc3ccc(Nc4cc(C(C)C)cnn4)nc3c2)ccn1 [Example 0229]
< 1000	< 1000	–	–	CN(C)CC(C)(C)Cn1cc(-c2cnc3ccc(Nc4nnc(C5CCCC5)s4)nc3c2)cn1 [Example 0317, 5-Cyclopentyl-N-(7-(1-(3-(dimethylamino)-2,2-dimethylpropyl)-1H-pyrazol-4-yl)-1,5-naphthyridin-2-yl)-1,3,4-thiadiazole-2-amine]
–	–	< 1000	< 1000	CCc1nn(C)cc1-c1cnc2ccc(Nc3nnc(C4CCCC4)s3)nc2c1 [Example 0110, 5-cyclopentyl-N-(7-(3-ethyl-1-methyl-1H-pyrazol-4-yl)-1,5-naphthyridin-2-yl)-1,3,4-thiadiazole-2-amine]
1000 to 10000	1000 to 10000	–	–	CC(C)c1nnc(Nc2ccc3nccc(-c4ccccn4)c3n2)s1 [Example 0281, 5-isopropyl-N-(8-(pyridin-2-yl)-1,5-naphthyridin-2-yl)-1,3,4-thiadiazole-2-amine]
–	–	1000 to 10000	< 1000	OCCCN1CCN(c2cnc3ccc(Nc4nnc(C5CCCC5)s4)nc3c2)CC1 [Example 0050]
< 1000	< 1000	–	–	c1cc(Nc2cnc3ccc(Nc4nnc(C5CCCC5)s4)nc3c2)ccc1CN1CCOCC1 [Example 0221, N^2-(5-cyclopentyl-1,3,4-thiadiazol-2-yl)-N^7-(4-(morpholinomethyl)phenyl)-1,5-naphthyridine-2,7-diamine]
–	–	< 1000	1000 to 10000	CCOC(=O)c1cnc(Nc2ccc3ncc(-c4cnn(C)c4)cc3n2)s1 [Example 0035, ethyl 2-((7-(1-methyl-1H-pyrazol-4-yl)-1,5-naphthyridin-2-yl)amino)thiazole-5-carboxylate]
< 1000	< 1000	–	–	c1ccc(-c2cnnc(Nc3ccc4ncc(-c5cnn(CCCN6CCCC6)c5)cc4n3)c2)cc1 [Example 0297, N-(5-phenylpyridazin-3-yl)-7-(1-(3-(pyrrolidin-1-yl)propyl)-1H-pyrazol-4-yl)-1,5-naphthyridine-2-amine]
–	–	< 1000	< 1000	c1cnn(-c2cncc(Nc3cnc4ccc(Nc5nnc(C6CCCC6)s5)nc4c3)c2)c1 [Example 0073]
–	–	< 1000	1000 to 10000	COc1cccc(Nc2ccnc3ccc(Nc4nnc(C(C)C)s4)nc23)c1 [Example 0012]
–	–	1000 to 10000	< 1000	CC(C)c1nnc(Nc2ccc3ncc(-c4cnn(C)c4)nc3n2)s1 [Example 0010, 5-isopropyl-N-(3-(1-methyl-1H-pyrazol-4-yl)pyrido[2,3-b]pyrazine-6-yl)-1,3,4-thiadiazole-2-amineformate]
–	–	1000 to 10000	1000 to 10000	Cn1cc(-c2cnc3ccc(Nc4cncs4)nc3c2)cn1 [Example 0199, N-(7-(1-methyl-1H-pyrazol-4-yl)-1,5-naphthyridin-2-yl)thiazole-5-amine]
< 1000	< 1000	–	–	CC(C)(O)Cc1nnc(Nc2ccc3ncc(-c4cnn(CCCN5CCCC5)c4)cc3n2)s1 [Example 0260]
–	–	1000 to 10000	< 1000	CS(=O)(=O)N1CCN(c2cnc3ccc(Nc4nnc(C5CCCC5)s4)nc3c2)CC1 [Example 0053, 5-cyclopentyl-N-(7-(4-(methylsulfonyl)piperazin-1-yl)-1,5-naphthyridin-2-yl)-1,3,4-thiadiazole-2-amine hydrochloride]
10000 to 50000	1000 to 10000	–	–	COc1cc(-c2ccnc3ccc(Nc4nnc(C(C)C)s4)nc23)ccn1 [Example 0280]
–	–	1000 to 10000	< 1000	Cc1cnnc(Nc2ccc3ncc(-c4cn[nH]c4)cc3n2)c1 [Example 0154]
–	–	< 1000	< 1000	CC(C)c1cnc(Nc2ccc3ncc(-c4cnn(CCCN5CCCC5)c4)cc3n2)s1 [Example 0119]

Second part, the compound before the results:

SMILES	IC50 (human PI3Kα protein) [nM]	IC50 ([1]; ERK2 enzyme assay (1)) [nM]	IC50 (human PI3Kα protein; [2]) [nM]	IC50 [1, 3] [nM]
CC(=O)N1CCC(c2cnc3ccc(Nc4nnc(C5CCCC5)s4)nc3c2)CC1 [Example 0335, 1-(4-(6-((5-Cyclopentyl-1,3,4-thiadiazol-2-yl)amino)-1,5-naphthyridin-3-yl)piperidin-1-yl)ethanone]	10000 to 50000	< 1000	–	–
CC(C)c1nnc(Nc2ccc3nccc(Nc4cccnc4)c3n2)s1 [Example 0006]	–	–	< 1000	< 1000
COc1cc(Nc2cnc3ccc(Nc4nnc(C5CCCC5)s4)nc3c2)cc(OC)c1 [Example 0081]	–	–	1000 to 10000	< 1000
CCCc1nn(CCCN2CCCC2)cc1-c1cnc2ccc(Nc3cc(C(C)C)cnn3)nc2c1 [Example 0391, N-(5-isopropylpyridazin-3-yl)-7-(3-propyl-1-(3-(pyrrolidin-1-yl)propyl)-1H-pyrazol-4-yl)-1,5-naphthyridine-2-amine]	< 1000	< 1000	–	–
Cn1cc(-c2cnc3ccc(Nc4nccs4)nc3c2)cn1 [Example 0029]	–	–	< 1000	< 1000
CN1CCN(c2cnc3ccc(Nc4nnc(C5CCCC5)s4)nc3c2)CC1=O [Example 0054]	–	–	< 1000	< 1000
CC(C)c1nnc(Nc2ccc3nccc(Nc4ccncn4)c3n2)s1 [Example 0007]	–	–	< 1000	< 1000
CC(=O)N1CCC(Nc2cnc3ccc(Nc4nnc(C5CCCC5)s4)nc3c2)CC1 [Example 0063]	–	–	< 1000	< 1000
COC[C@H]1CCCN1c1cnc2ccc(Nc3nnc(C4CCCC4)s3)nc2c1 [Example 0062]	–	–	1000 to 10000	< 1000
CC(C)c1cnnc(Nc2ccc3ncc(-c4cn(C)nc4CO[Si](C)(C)C(C)(C)C)cc3n2)c1 [Example 0393, 7-(3-(((tert-butyldimethylsilyl)oxy)methyl)-1-methyl-1H-pyrazol-4-yl)-N-(5-isopropylpyridazin-3-yl)-1,5-naphthyridine-2-amine]	1000 to 10000	< 1000	–	–
Cc1cnnc(Nc2ccc3ncc(-c4cn(C)nc4CO[Si](C)(C)C(C)(C)C)cc3n2)c1 [Example 0396, 7-(3-(((tert-butyldimethylsilyl)oxy)methyl)-1-methyl-1H-pyrazol-4-yl)-N-(5-methylpyridazin-3-yl)-1,5-naphthyridine-2-amine]	10000 to 50000	< 1000	–	–
CNc1nnc(Nc2ccc3ncc(-c4cnn(CCN5CCOCC5)c4)cc3n2)s1 [Example 0249, N^2-methyl-N^5-(7-(1-(2-morpholinoethyl)-1H-pyrazol-4-yl)-1,5-naphthyridin-2-yl)-1,3,4-thiadiazole-2,5-diamine]	< 1000	< 1000	–	–
Cc1ncc(Nc2cnc3ccc(Nc4nnc(C5CCCC5)s4)nc3c2)cc1-n1nccn1 [Example 0074]	–	–	< 1000	< 1000
c1nc2ccc(Nc3ncc(C4CCCC4)s3)nc2cc1-c1cnn(CCCN2CCCC2)c1 [Example 0126, 5-cyclopentyl-N-(7-(1-(3-(pyrrolidin-1-yl)propyl)-1H-pyrazol-4-yl)-1,5-naphthyridin-2-yl)thiazole-2-amine]	–	–	< 1000	< 1000
Cn1cc(-c2cnc3ccc(Nc4ncc[nH]4)nc3c2)cn1 [Example 0030, N-(1H-imidazol-2-yl)-7-(1-methyl-1H-pyrazol-4-yl)-1,5-naphthyridine-2-amine]	–	–	< 1000	< 1000
